Measurements as given in patent publication US9255295B2, “Method for evaluating the sensitizing potential of a test compound” (IMMUNOSEARCH, priority 2010, dated 2016).
Like-named read-outs stand apart in the source and are kept apart here.

How the values were obtained:
[1] = system: ARE gene family (AKR1B10, AKR1C1, AKR1C2, CYP1B1, FTH1P, FTL, G6PD, GCLM, NQO2, SLC7A11, TXNRD1, UGT1A1, UGT1A9, YWHAZ, CD36, CYP1A1, GCLC, HMOX1, NQO1, PSME2 …); settings: human
EPISKIN model = assay: Sensitizing power: sensitizing potential retested at successive dilutions in the EPISKIN model
Excerpt: “Sensitizing power” means the ability of a given compound to induce a sensitization reaction according to the concentration of said compound. Sensitizing power is dependent on the quantity of substance necessary to induce sensitization. Thus, the lower the sensitizing quantity necessary to induce a sensitizing response, the stronger the sensitizer is, and vice versa, the higher the sensitizing quantity necessary to induce a sensitizing response, the weaker the sensitizer is.
Thus, steps 1) and 2) will be done for each of the dilutions.

SMILES: Oc1ccc(O)cc1 [Hydroquinone]
- AHR expression compared to control ([1]; 15 min, 0.1 %): 0.8
- ARE >1.3 (NUMBER OF GENES) ([1]; 15 min, 0.1 %): 5
- GCLM expression compared to control ([1]; 15 min, 0.1 %): 0.7
- NQO2 expression compared to control ([1]; 15 min, 0.1 %): 0.9
- SLC7A11 expression compared to control ([1]; 15 min, 0.1 %): 1.3
- TOTAL ARE (NUMBER OF GENES) ([1]; 15 min, 0.1 %): 5
- UGT1A9 expression compared to control ([1]; 15 min, 0.1 %): 0.8
- AHR expression compared to control ([1]; 15 min, 1 %): 0.6
- ARE >1.3 (NUMBER OF GENES) ([1]; 15 min, 1 %): 9
- GCLM expression compared to control ([1]; 15 min, 1 %): 1.8
- NQO2 expression compared to control ([1]; 15 min, 1 %): 1.4
- SLC7A11 expression compared to control ([1]; 15 min, 1 %): 1.5
- TOTAL ARE (NUMBER OF GENES) ([1]; 15 min, 1 %): 9
- UGT1A9 expression compared to control ([1]; 15 min, 1 %): 1.5
- AHR expression compared to control ([1]; 15 min, 10 %): 0.6
- ARE >1.3 (NUMBER OF GENES) ([1]; 15 min, 10 %): 13
- GCLM expression compared to control ([1]; 15 min, 10 %): 2.0
- NQO2 expression compared to control ([1]; 15 min, 10 %): 1.5
- SLC7A11 expression compared to control ([1]; 15 min, 10 %): 1.6
- TOTAL ARE (NUMBER OF GENES) ([1]; 15 min, 10 %): 13
- UGT1A9 expression compared to control ([1]; 15 min, 10 %): 1.3
- ARE >1.3 (NUMBER OF GENES) ([1]; 15 min, 50 %): 15
- TOTAL ARE (NUMBER OF GENES) ([1]; 15 min, 50 %): 15
- AKR1B10 expression compared to control ([1]; 6 h, 0.1 %): 0.9
- AKR1C1 expression compared to control ([1]; 6 h, 0.1 %): 1.2
- AKR1C2 expression compared to control ([1]; 6 h, 0.1 %): 0.7
- CD36 expression compared to control ([1]; 6 h, 0.1 %): 0.7
- CYP1A1 expression compared to control ([1]; 6 h, 0.1 %): 8.0
- CYP1B1 expression compared to control ([1]; 6 h, 0.1 %): 1.8
- FTH1P expression compared to control ([1]; 6 h, 0.1 %): 1.2
- FTL expression compared to control ([1]; 6 h, 0.1 %): 1.5
- GCLC expression compared to control ([1]; 6 h, 0.1 %): 1.3
- HMOX1 expression compared to control ([1]; 6 h, 0.1 %): 1.1
- NQO1 expression compared to control ([1]; 6 h, 0.1 %): 1.2
- S100A8 expression compared to control ([1]; 6 h, 0.1 %): 1.1
- TXNRD1 expression compared to control ([1]; 6 h, 0.1 %): 2.3
- UGT1A1 expression compared to control ([1]; 6 h, 0.1 %): 1.7
- AKR1B10 expression compared to control ([1]; 6 h, 1 %): 1.0
- AKR1C1 expression compared to control ([1]; 6 h, 1 %): 2.0
- AKR1C2 expression compared to control ([1]; 6 h, 1 %): 1.3
- CD36 expression compared to control ([1]; 6 h, 1 %): 0.7
- CYP1A1 expression compared to control ([1]; 6 h, 1 %): 15.4
- CYP1B1 expression compared to control ([1]; 6 h, 1 %): 7.1
- FTH1P expression compared to control ([1]; 6 h, 1 %): 1.3
- FTL expression compared to control ([1]; 6 h, 1 %): 1.5
- GCLC expression compared to control ([1]; 6 h, 1 %): 1.3
- HMOX1 expression compared to control ([1]; 6 h, 1 %): 1.0
- NQO1 expression compared to control ([1]; 6 h, 1 %): 1.3
- S100A8 expression compared to control ([1]; 6 h, 1 %): 1.4
- TXNRD1 expression compared to control ([1]; 6 h, 1 %): 2.1
- UGT1A1 expression compared to control ([1]; 6 h, 1 %): 1.4
- AKR1B10 expression compared to control ([1]; 6 h, 10 %): 1.0
- AKR1C1 expression compared to control ([1]; 6 h, 10 %): 2.6
- AKR1C2 expression compared to control ([1]; 6 h, 10 %): 1.8
- CD36 expression compared to control ([1]; 6 h, 10 %): 0.7
- CYP1A1 expression compared to control ([1]; 6 h, 10 %): 33.2
- CYP1B1 expression compared to control ([1]; 6 h, 10 %): 17.1
- FTH1P expression compared to control ([1]; 6 h, 10 %): 1.4
- FTL expression compared to control ([1]; 6 h, 10 %): 1.9
- GCLC expression compared to control ([1]; 6 h, 10 %): 1.5
- HMOX1 expression compared to control ([1]; 6 h, 10 %): 1.2
- NQO1 expression compared to control ([1]; 6 h, 10 %): 1.5
- S100A8 expression compared to control ([1]; 6 h, 10 %): 1.4
- TXNRD1 expression compared to control ([1]; 6 h, 10 %): 2.6
- UGT1A1 expression compared to control ([1]; 6 h, 10 %): 1.5
- AHR expression compared to control ([1]; 6 h, 50 %): 0.9
- AKR1B10 expression compared to control ([1]; 6 h, 50 %): 1.1
- AKR1C1 expression compared to control ([1]; 6 h, 50 %): 3.5
- AKR1C2 expression compared to control ([1]; 6 h, 50 %): 3.7
- CD36 expression compared to control ([1]; 6 h, 50 %): 0.8
- CYP1A1 expression compared to control ([1]; 6 h, 50 %): 57.8
- CYP1B1 expression compared to control ([1]; 6 h, 50 %): 49.5
- FTH1P expression compared to control ([1]; 6 h, 50 %): 2.1
- FTL expression compared to control ([1]; 6 h, 50 %): 3.5
- GCLC expression compared to control ([1]; 6 h, 50 %): 2.4
- GCLM expression compared to control ([1]; 6 h, 50 %): 3.8
- HMOX1 expression compared to control ([1]; 6 h, 50 %): 3.5
- NQO1 expression compared to control ([1]; 6 h, 50 %): 2.8
- NQO2 expression compared to control ([1]; 6 h, 50 %): 2.0
- S100A8 expression compared to control ([1]; 6 h, 50 %): 1.4
- SLC7A11 expression compared to control ([1]; 6 h, 50 %): 5.4
- TXNRD1 expression compared to control ([1]; 6 h, 50 %): 7.9
- UGT1A1 expression compared to control ([1]; 6 h, 50 %): 1.9
- UGT1A9 expression compared to control ([1]; 6 h, 50 %): 1.7
- sensitizing potential (Sensitizing / Non-sensitizing) (EPISKIN model; 1%): Sensitizing
- sensitizing potential (Sensitizing / Non-sensitizing) (EPISKIN model; 10%): Sensitizing
- sensitizing potential (Sensitizing / Non-sensitizing) (EPISKIN model; 50%): Sensitizing
- sensitizing power (class) (EPISKIN model; from successive dilutions 50%, 10%, 1%, 0.1%): STRONG
